Marks after values point to notes of the source that are not given here. Residues, ends and D or L forms follow the SMILES beside them.
Assays:
Anti-BVVT-Ab (IgM) = test: Anti-BVVT-Ab titers (IgM) in newborn rats after single treatment (hemagglutination); format: in vivo, Hannover Wistar rats (newborn); settings: 1x/ip, n = 12, control 6.3 (TP5), 5.2 (TP3)
Protocol: Rats (Hannover Wistar) were treated (i.p.) within 6-12 hours after birth. Treatments after birth in a single session or in another examination • on the 7th day after the first treatment; • another group was vaccinated 3 times a week after the first day of […]. treatment • in a subsequent group treated over three weeks (9× in total) (10-3,10-5,10-7//10-9, 10-11,10-12, 10-13 M/animal, i.p). • in the fourth test series, the animals were treated with TP fragments at 0, 1, 2, 4, or 5 days of age. The rats were unanimously immunized on the 14th day after birth (1% BVVT with 0.5 ml cell suspension, i.p.). Immune responses were measured after 7 days on day 21 of the experiment.
(§1) Rats (Hannover Wistar) were treated (i.p.) within 6-12 hours after birth. Treatments after birth in a single session or in another examination • on the 7th day after the first treatment; • another group was vaccinated 3 times a week after the first day of treatment. • in a subsequent group, the treatments took place over three weeks (9× in total) (10-3,10-5,10-7//10-9, 10-11,10-12,10-13 M/animal, i.p.). • in the fourth test series, the animals were treated with TP fragments at 0, 1, 2, 4, or 5 days of age. The rats were randomly immunized on the 14th day after birth (1% BVVT with 0.5 ml cell suspension, i.p.). Immune responses were measured after 7 days on day 21 of the experiment. 1.2. Determination of anti-BVVT Ab titers (from rat blood samples ex vivo) • with the haemagglutination method (Takátsy and Fürész, 1955) on 96-well plates (Flow). 50 ul of 0.9% NaCl solution was added to each well. The sera (50 μl) were diluted by half dilution in 12 steps, mixed with 25 pμl 2% BVVT cell suspension, and incubated (1 hour at 37 °C). The hemagglutination titers of the sera are determined. Values expressed in logarithmic values refer to total agglutination.

[1] = test system: Antibody production (immunized with BVVT); test: Antibody production (anti-BVVT titer) in Balb/c nu/nu mice; format: in vivo; settings: ip, n = 10/group, control < 3.0
Protocol: as §1
(§2) Mice were treated for 4 weeks 3 times a week (every other day) with TP fragments (10-9, 10-8, 10-7//10-3, 10-2, 10-1 M/animal ip. (Veys et al., 1983) at the end of the treatments ([…]), the mice were immunized (with 0.5 ml 1% BVVT suspension ip. The immune response was expressed in antibody titers as above).

[2] = test system: tumour patients (metastatic melanoma); settings: 26 studies, 2,736 patients, in words, cited from earlier work
[3] = test system: Thy1+ cells in the spleens; test: Number of Thy1+ cells in spleens of Balb/c nu/nu mice after TP-fragment treatment; format: in vivo; settings: ip, n = 8/group, control 5.4
Protocol: • D.1/Direct cytotoxicity test/for the detection of Thy, Lyt antigens (Fathman 1979, in Immunol Meth I. Eds. Lefkovits, Pernis, Acad Press, New York, pp. 212-213.) was used. Subpopulation ratios were determined from bone marrow cells, thymus, and spleen cells isolated from the lymphatic organs of mice. The cell suspensions (1.087-1.088 g/cm3) were centrifuged ona density gradient (2000 rpm, 20 minutes), and the cells were washed 3× with RPMI1640 medium containing 0.3% BSA, then adjusted to 107/ml. Thyl, Lyt 1, Lyt2 monoclonal antibodies (McAb/Ando I. (ICRF Human Tumor Immunol. UCM Med Sch. London) were obtained. 25 μl McAb and 25 ul cell suspension were incubated (60′, 40C1), after centrifugation (1250 rpm 10′), the cells were resuspended with 40 μul of diluted (1:50) rabbit complement, then incubated (370C, 60′). The cell suspensions were stained with 1:5 dilution of Eosin Y (Jansen). the ratio of live to non-living cells was determined.
as §2
Effects of inducing renewal of the immune system and increasing activity in Balb/c nude mice The nude mouse is genetically deficient in the thymus. The […] atrophies over time after hormonal follow-up in mice and humans. As a result, the strength of the lymphoid, and within that of the T cells, decreases. All this means a definitive decrease in antigen recognition capacity. The increasing number and activity of immune cells in the thymus of nude mice is increasing health and quality of life span.
The number of Thy1+ cells in the spleens of Balb/c nu/nu mice after TP-fragment treatment (Thy 1+ marker-bearing cells in mice correspond to human lymphocytes)

[4] = High-dose / long-term tolerability in animals; format: in vivo; settings: 12 months of use, in words
peritoneal macrophages = test: Phagocytic function of peritoneal macrophages ex vivo in CFLP outbred mice (CY-immunosuppressed); settings: for macrophage phagocytosis ex vivo: CY-treated mice, n = 15, untreated control 194.5, CY 111.5
Text: 6.2./Examination of the Effect on the Phagocytic Function of Peritoneal Macrophages CFLP Outbred in Mice
Macrophage phagocytosis ex vivo (X=yeast/100 cells)

PFC = PFC cell count in aged mice; format: in vivo, aged mice (Balb/c); settings: first value column under head 'PFC IgM/logx^2'; aged mice 18 months old; n = 8/group; young control 6.3, aged 3.7
Protocol: 1.3./Determination of the number of plaque-forming cells (PFC) (using rat spleen cells) The chopped splenocytes were placed in a culture medium (Parker 199) and then shaken with a shaker for 1 minute. The cells were suctioned from the surface of the rapidly settling tissue debris. Red blood cells were removed osmotically. Cell suspensions were adjusted to 107/ml. The cell suspensions were mixed with a 15% BVVT cell suspension in a ratio of 2:1. PFC was determined with the mixture using a modified chamber technique according to Channingham et al., 1966). Before filling the chamber, 50 μl of fresh diluted guinea pig serum (1:20) was added. The chambers (2-2/slide) were incubated (370C 45′) after sealing with paraffin, the formed plaques were counted under a microscope (at 400× magnification) within 2 hours Marker tests related to the rejection reaction of an adult thymus-depleted mouse skin graft 1.4./Rejection of skin transplants in nude mice after treatment with TP fragments (Snell et al., Transplantation 5, 492, 1967).
TP effect on antibody production and PFC cell count in aged mice (Balb/c)

CC(C)[C@H](NC(=O)[C@H](CC(=O)O)NC(=O)[C@H](CCCCN)NC(=O)[C@@H](N)CCCN=C(N)N)C(=O)N[C@@H](Cc1ccc(O)cc1)C(=O)O [TP5] (H-RKDVY-OH)
Anti-BVVT-Ab titers (IgM) (Anti-BVVT-Ab (IgM); 10^-3 M/animal): 7.6 2 log
Anti-BVVT-Ab titers (IgM) (Anti-BVVT-Ab (IgM); 10^-4 M/animal): 8.1* 2 log
Anti-BVVT-Ab titers (IgM) (Anti-BVVT-Ab (IgM); 10^-5 M/animal): 8.6* 2 log
Anti-BVVT-Ab titers (IgM) (Anti-BVVT-Ab (IgM); 10^-6 M/animal): 8.5* 2 log
Anti-BVVT-Ab titers (IgM) (Anti-BVVT-Ab (IgM); 10^-9 M/animal): 8.0* 2 log
Anti-BVVT-Ab titers (IgM) (Anti-BVVT-Ab (IgM); 10^-11 M/animal): 7.7 2 log
Anti-BVVT-Ab titers (IgM) (Anti-BVVT-Ab (IgM); 10^-13 M/animal): 7.0 2 log
antibody production (titer) ([1]; 10^-2 M/mouse (M/eger)): 26.4 **
antibody production (titer) ([1]; 10^-3 M/mouse (M/eger)): 19.8
antibody production (titer) ([1]; 10^-4 M/mouse (M/eger)): 11.9
antibody production (titer) ([1]; 10^-7 M/mouse (M/eger)): 24.6 **
antibody production (titer) ([1]; 10^-8 M/mouse (M/eger)): 19.9 *
antibody production (titer) ([1]; 10^-9 M/mouse (M/eger)): 14.5
severe infections ([2]; in parallel with radiation or chemotherapy): promising results in reducing severe infections
number of survivors [2]: not significantly affected
number of Thy1+ cells in spleen ([3]; 10^-1 M/mice): 131*
number of Thy1+ cells in spleen ([3]; 10^-2 M/mice): 129**
number of Thy1+ cells in spleen ([3]; 10^-3 M/mice): 94*
number of Thy1+ cells in spleen ([3]; 10^-7 M/mice): 125**
number of Thy1+ cells in spleen ([3]; 10^-8 M/mice): 79*
number of Thy1+ cells in spleen ([3]; 10^-9 M/mice): 9.5
side effects [4]: did not cause any signs of side effects
phagocytic activity of macrophages (peritoneal macrophages; CY immunosuppression, 1.0 mg/kg/sc (TP3), in words): ineffective
macrophage phagocytosis ex vivo (peritoneal macrophages; TP dose 0.1 (mg/kg/sc)): 149.6 yeast/100 cells
macrophage phagocytosis ex vivo (peritoneal macrophages; TP dose 1.0 (mg/kg/sc)): 123.1 yeast/100 cells
macrophage phagocytosis ex vivo (peritoneal macrophages; TP dose 10.0 (mg/kg/sc)): 95.6 yeast/100 cells
PFC (PFC): 6.1*

Reference: patent US20260315564A1, “THE USE OF TP3 (THYMOPENTIN ANALOG) BY INCREASING THE ACTIVITY AND NUMBER OF T-CELLS INVOLVED IN THE DEFENSE MECHANISM OF THE IMMUNE SYSTEM OF MAMMALS, FOR THE PREVENTION OR TREATMENT OF DISEASES TO EXTEND THE AVERAGE LIFESPAN” (priority 2023, published 2026)
